These results are taken from US7071355B2, “Compounds as anti-inflammatory, immunomodulatory and anti-proliferatory agents” (4 SC AG, priority 2002, dated 2006).

This assay deals with human DHODH (Homo sapiens, UniProt Q02127). In words: Inhibition assay of DHODH activity. In kind it is biochemical. To be noted: recombinant human DHODH; 50 μM decyclo ubichinone, 100 μM dihydroorotate, 60 μM 2,6-dichloroindophenol; pH 8.0, 30° C.

Some results are limits rather than exact numbers.

Chain of human DHODH (Q02127 whole entry): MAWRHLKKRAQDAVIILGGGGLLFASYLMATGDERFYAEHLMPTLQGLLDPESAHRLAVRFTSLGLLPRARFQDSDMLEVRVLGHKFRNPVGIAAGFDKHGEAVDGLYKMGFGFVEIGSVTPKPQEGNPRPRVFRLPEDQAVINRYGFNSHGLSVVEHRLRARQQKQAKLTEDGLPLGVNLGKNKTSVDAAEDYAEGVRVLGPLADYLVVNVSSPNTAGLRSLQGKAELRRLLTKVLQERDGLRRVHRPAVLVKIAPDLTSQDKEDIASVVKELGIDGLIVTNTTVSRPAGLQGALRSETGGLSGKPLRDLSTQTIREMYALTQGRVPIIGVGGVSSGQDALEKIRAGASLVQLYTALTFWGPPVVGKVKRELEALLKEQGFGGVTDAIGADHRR

By IC50 is commonly meant the concentration at which inhibition is half-maximal. With `O=C(O)C1=C(C(=O)Nc2c(F)cc(-c3ccccc3F)cc2F)CCC1O` (centres unmarked) [Example 12, 5-Hydroxy-2-(3,5,2′-trifluoro-biphenyl-4-ylcarbamoyl)-cyclopent-1-enecarboxylic acid], the 50% inhibitory concentration (IC50) was less than 1000 nM. Under `COc1cccc(-c2ccc(NC(=O)C3=C(C(=O)O)C(O)CC3)c(F)c2)c1` (centres unmarked) [Example 18, 2-(3-Fluoro-3′-methoxy-biphenyl-4-ylcarbamoyl)-5-hydroxy-cyclopent-1-enecarboxylic acid] stands less than 1000 nM.
